Among the data in ChEMBL document CHEMBL4219206, “Novel thioureido-benzenesulfonamide derivatives with enaminone linker as potent anticancer, radiosensitizers and VEGFR2 inhibitors” (Bioorg Med Chem Lett, 2018) are IC50 values, retold here.

For one assay, the system named is HepG2. Briefly: cells. As to conditions: Homo sapiens, HepG2, 24 h.
Description: Antiproliferative activity against human HepG2 cells after 24 hrs by MTT assay
With `CCOC(=O)N/C=C/C(=O)c1cccc(NC(=S)Nc2ccc(S(=O)(=O)Nc3ccccn3)cc2)c1`, the IC50 (as a rule, the concentration that gives 50% inhibition) is 1900 nM.

`O=C(/C=C/Nc1ccccc1O)c1cccc(NC(=S)Nc2ccc(S(=O)(=O)Nc3ccccn3)cc2)c1` showed an IC50 of 2900 nM.

For the compound `O=C(/C=C/Nc1ccccc1)c1ccc(NC(=S)Nc2ccc(S(=O)(=O)Nc3ccccn3)cc2)cc1`, half-maximal inhibition (IC50) required 3900 nM.

`O=C(/C=C/Nc1ccc(F)cc1)c1cccc(NC(=S)Nc2ccc(S(=O)(=O)Nc3ccccn3)cc2)c1` showed an IC50 of 1200 nM.

Turning to `O=C(/C=C/NCc1ccccc1)c1ccc(NC(=S)Nc2ccc(S(=O)(=O)Nc3ccccn3)cc2)cc1`, 2300 nM corresponded to half-maximal inhibition (IC50).

`O=C(/C=C/Nc1ccccc1)c1cccc(NC(=S)Nc2ccc(S(=O)(=O)Nc3ccccn3)cc2)c1`: inhibition was half-maximal at 4700 nM (IC50).

With `O=C(/C=C/Nc1ccccc1O)c1ccc(NC(=S)Nc2ccc(S(=O)(=O)Nc3ccccn3)cc2)cc1`, the IC50 came to 1400 nM.

`O=C(/C=C/Nc1ccccc1Cl)c1ccc(NC(=S)Nc2ccc(S(=O)(=O)Nc3ccccn3)cc2)cc1` showed an IC50 of 440 nM.

Compound `CCOC(=O)c1ccc(N/C=C/C(=O)c2ccc(NC(=S)Nc3ccc(S(=O)(=O)Nc4ccccn4)cc3)cc2)cc1` registered an IC50 of 660 nM.

In the case of `CCOC(=O)N/C=C/C(=O)c1ccc(NC(=S)Nc2ccc(S(=O)(=O)Nc3ccccn3)cc2)cc1`, the midpoint of inhibition, the IC50, lay at 120 nM.

`Cc1ccc(C(=O)O)c(N/C=C/C(=O)c2ccc(NC(=S)Nc3ccc(S(=O)(=O)Nc4ccccn4)cc3)cc2)c1` yielded an IC50 of 580 nM.

The compound `Cc1ccc(N/C=C/C(=O)c2cccc(NC(=S)Nc3ccc(S(=O)(=O)Nc4ccccn4)cc3)c2)c(C(=O)O)c1` gave an IC50 of 1600 nM.

Compound `O=C(/C=C/Nc1ccc(F)cc1)c1ccc(NC(=S)Nc2ccc(S(=O)(=O)Nc3ccccn3)cc2)cc1` returned an IC50 of 420 nM.

As to `CN(C)/C=C/C(=O)c1ccc(NC(=S)Nc2ccc(S(=O)(=O)Nc3ccccn3)cc2)cc1`, the IC50 was 3500 nM.

In the case of `O=C(/C=C/Nc1ccccn1)c1ccc(NC(=S)Nc2ccc(S(=O)(=O)Nc3ccccn3)cc2)cc1`, the IC50 came to 3100 nM.

`COC(=O)c1c(N/C=C/C(=O)c2cccc(NC(=S)Nc3ccc(S(=O)(=O)Nc4ccccn4)cc3)c2)sc(C)c1C` came in with an IC50 of 10800 nM.

In turn, `Cc1c(N/C=C/C(=O)c2ccc(NC(=S)Nc3ccc(S(=O)(=O)Nc4ccccn4)cc3)cc2)c(=O)n(-c2ccccc2)n1C` returned an IC50 of 8000 nM.

As for `CCOC(=O)c1ccc(N/C=C/C(=O)c2cccc(NC(=S)Nc3ccc(S(=O)(=O)Nc4ccccn4)cc3)c2)cc1`, the IC50 worked out at 1500 nM.

As to `CC(=O)c1ccc(NC(=S)Nc2ccc(S(=O)(=O)Nc3ccccn3)cc2)cc1`, the IC50 is 6900 nM.

As to `Cc1c(N/C=C/C(=O)c2cccc(NC(=S)Nc3ccc(S(=O)(=O)Nc4ccccn4)cc3)c2)c(=O)n(-c2ccccc2)n1C`, it took 11400 nM to reach half-maximal inhibition (IC50).

Consider `COC(=O)/C=C(/C)N/C=C/C(=O)c1ccc(NC(=S)Nc2ccc(S(=O)(=O)Nc3ccccn3)cc2)cc1`, for which the IC50 came to 290 nM.

`O=S(=O)(Nc1ccccn1)c1ccc(N=C=S)cc1`: 5500 nM corresponded to half-maximal inhibition (IC50).

`COC(=O)c1c(N/C=C/C(=O)c2ccc(NC(=S)Nc3ccc(S(=O)(=O)Nc4ccccn4)cc3)cc2)sc(C)c1C` had an IC50 of 6200 nM.

In turn, `O=C(/C=C/Nc1ccccc1Cl)c1cccc(NC(=S)Nc2ccc(S(=O)(=O)Nc3ccccn3)cc2)c1` came in with an IC50 of 500 nM.

As to `CC(=O)c1cccc(NC(=S)Nc2ccc(S(=O)(=O)Nc3ccccn3)cc2)c1`, the IC50 was 5000 nM.

Compound `CN(C)/C=C/C(=O)c1cccc(NC(=S)Nc2ccc(S(=O)(=O)Nc3ccccn3)cc2)c1` gave an IC50 of 5500 nM.

Consider `O=C(/C=C/NCc1ccccc1)c1cccc(NC(=S)Nc2ccc(S(=O)(=O)Nc3ccccn3)cc2)c1`, for which it took 2500 nM to reach half-maximal inhibition (IC50).

`O=C(/C=C/Nc1ccccn1)c1cccc(NC(=S)Nc2ccc(S(=O)(=O)Nc3ccccn3)cc2)c1` yielded an IC50 of 4700 nM.

Consider `COC(=O)/C=C(/C)N/C=C/C(=O)c1cccc(NC(=S)Nc2ccc(S(=O)(=O)Nc3ccccn3)cc2)c1`, for which half-maximal inhibition (IC50) required 1500 nM.

In turn, `CNC(=O)c1cc(Oc2ccc(NC(=O)Nc3ccc(Cl)c(C(F)(F)F)c3)cc2)ccn1` [SORAFENIB] returned an IC50 of 1060 nM.

For another assay, the system named is HepG2. As to the kind of experiment: cells. As to conditions: Homo sapiens, HepG2, light or radiation study.
Description: Phototoxicity against human HepG2 cells assessed as reduction in cell viability pretreated for 2 hrs followed by 8 Gy gamma irradiation for 17.73 mins measured after 48 hrs by MTT assay
Consider `O=C(/C=C/Nc1ccccc1Cl)c1ccc(NC(=S)Nc2ccc(S(=O)(=O)Nc3ccccn3)cc2)cc1`, for which the IC50 turned out to be 250 nM.

In the case of `CCOC(=O)c1ccc(N/C=C/C(=O)c2ccc(NC(=S)Nc3ccc(S(=O)(=O)Nc4ccccn4)cc3)cc2)cc1`, the midpoint of inhibition, the IC50, lay at 390 nM.

Compound `CCOC(=O)N/C=C/C(=O)c1ccc(NC(=S)Nc2ccc(S(=O)(=O)Nc3ccccn3)cc2)cc1` showed an IC50 of 70 nM.

The compound `Cc1ccc(C(=O)O)c(N/C=C/C(=O)c2ccc(NC(=S)Nc3ccc(S(=O)(=O)Nc4ccccn4)cc3)cc2)c1` came in with an IC50 of 300 nM.

`O=C(/C=C/Nc1ccc(F)cc1)c1ccc(NC(=S)Nc2ccc(S(=O)(=O)Nc3ccccn3)cc2)cc1` gave an IC50 of 230 nM.

`COC(=O)/C=C(/C)N/C=C/C(=O)c1ccc(NC(=S)Nc2ccc(S(=O)(=O)Nc3ccccn3)cc2)cc1` had an IC50 of 160 nM.
